One data set deals with THP1-dual cells. The data set can be described thus: Luciferase assay based on THP1-dual cells. In kind it is cell-based. To be noted: final concentration of compound 10 μL (so in the source), 24 h at 37° C. As to the method:
(§1) THP1-dual™ (Invivogen: thpd-nfis) cells or RAW-Lucia™ (Invivogen: rawl-isg) cells were diluted using a culture medium, and 180 μL of cell suspension was sucked and inoculated in a 96-well plate, such that each well contain 1×10^5 cells. 20 μL of a compound to be tested was added into the 96-well plate (the final concentration of said compound was […], and the final volume of each well was […]) and cultured at 37° C. for 24 h. 10 μL of supernatant was sucked into a new 96-well white plate, and 50 μL of a QUANT-Luc reagent was added. After full and even mixing, a microplate reader was used immediately for determination. There were three repeated wells set in the assay. The test result was represented as agitation fold and calculated by (test well−blank well)/(negative well−blank well). The test result was in the following tablet, with 2′,3′-cGAMP as a positive control, where *** represented an agitation fold of 20 or more, ** represented an agitation fold of 10 to 20, and * represented an agitation fold of 1 to 10.

In a further data set the test system is RAW-Lucia cells. Description: Luciferase assay based on RAW-Lucia cells. The class given is cell-based. To be noted: 24 h at 37° C. The method, then:
as §1

Data set [1] concerns THP1 cells. The data set can be described thus: Interferon β induction assay based on THP1 cells (ELISA). In kind it is cell-based. To be noted: Homo sapiens, THP-1, compound 20 μM, 3.5 h, read-out: Secretion of IFNβ in THP1 cells, effect relative to 2′,3′-cGAMP at 20 μM (%). As to the method: Secreted cytokine IFNβ was determined by ELISA. THP1 cells were inoculated in a 96-well plate (there was no serum contained in an RPMI 1640 medium), such that the number of cells in each well ranged from 5×10^5 to 7×10^5. A DMSO stock solution of 10 mM was prepared from a compound to be tested, diluted with a culture medium to a target concentration to be added into the 96-well plate containing cells (the final concentration of said compound was 20 μM, and the final volume of each well was 200 μL), and cultured at 37° C. in 5% CO2 for 3.5 h. The cells were collected at 4° C. and centrifuged at 1,000 rpm for 20 mins, and supernate was collected for ELISA determination. There were three repeated wells set in the assay. The result was shown in the following tablet, with 2′,3′-cGAMP as a positive control, where the test result was represented as a percentage of activity relative to 2′,3′-cGAMP at a concentration of 20 μM.

A further data set can be described thus: Water solubility. In kind it is physicochemical. An excerpt:
(§2) The test result was shown in the following table, with MSA2 (Science. 2020, 369, eaba6098) as a reference compound.

Another data set can be described thus: LogP. The class given is physicochemical.
From the text: as §2

Data set [2] in a line: Stability of rat liver microsome within 2 h. In kind it is in vitro ADME.
From the text: as §2

Data set [3] can be described thus: Stability of human plasma within 24 h. The class given is in vitro ADME.
From the text: as §2

Data set [4] has as its system THP1 cells. Description: THP1 cell growth inhibition activity. The class given is cell-based.
From the text: as §2

The mark [5] stands for this setting: PBS, aqueous buffer, read-out: water solubility, PBS.
The mark [6] stands for this setting: water, read-out: water solubility, Water.
The mark [7] stands for this setting: stability of rat liver microsome within 2 h.
The mark [8] stands for this setting: stability of human plasma within 24 h.

The structures appear in SMILES notation. Values after ≈ are worked out from the molar mass of the structure shown. Read-outs that look alike come from different tables or passages of the source.

As a reminder, the solubility is the dissolved amount per volume that the medium holds. As a reminder, the logP is the decadic logarithm of the partition coefficient of the neutral form, usually between octanol and water. As usually defined, the IC50 is the concentration at which inhibition is half-maximal. Read a high IC50 as a need for much substance.

With `COc1cc2cc(C(=O)CCC(=O)O)[se]c2cc1OC` [I-1, 4-(5,6-dimethoxybenzo[b]selenophene-2-yl)-4-oxobutanoic acid], the “Agitation activity in luciferase assay, THP1-dual (agitation fold)” value with THP1-dual cells is on record as “*** (*** represented an agitation fold of 20 or more)”. In addition, the “Agitation activity in luciferase assay, RAW-Lucia (agitation fold)” value in the data set on RAW-Lucia cells is on record as “*** (*** represented an agitation fold of 20 or more)”. Moreover, the Emax at 20 µM in the data set on THP1 cells [1] was found to be 259%. The solubility in the data set “Water solubility” (setting [5]) was determined as 1900 µg/mL (≈ 5570 µM); in the data set “Water solubility” (setting [6]) it was 36 µg/mL (≈ 106 µM). Moreover, the logP in the data set “LogP” (read-out: LogP) is 2.5. Also, in data set [2] (setting [7]), the “RLM @ 2 h (%)” value was above 90%. Moreover, in data set [3] (setting [8]), the “hPlasma @ 24 h (%)” value is given as above 90%. This compound showed an IC50 in the data set on THP1 cells [4] (Homo sapiens, THP-1) above 100 µM.

For `COc1cc2cc(C(=O)CC(C)C(=O)O)[se]c2cc1OC` (stereo not drawn) [I-2, 4-(5,6-dimethoxybenzo[b]selenophene-2-yl)-2-methyl-4-oxo-butanoic acid], the “Agitation activity in luciferase assay, THP1-dual (agitation fold)” value with THP1-dual cells is recorded as “*** (*** represented an agitation fold of 20 or more)”. Moreover, the “Agitation activity in luciferase assay, RAW-Lucia (agitation fold)” value with RAW-Lucia cells is “*** (*** represented an agitation fold of 20 or more)”. Further, the Emax at 20 µM with THP1 cells [1] came out at 245%. Besides, the solubility in the data set “Water solubility” (setting [5]) is 1000 µg/mL (≈ 2810 µM); in the data set “Water solubility” (setting [6]), 30 µg/mL (≈ 84.4 µM). In addition, the logP in the data set “LogP” (read-out: LogP) is 2.4. The “RLM @ 2 h (%)” value in data set [2] (setting [7]) was above 90%. The “hPlasma @ 24 h (%)” value in data set [3] (setting [8]) is on record as above 90%. In the data set with THP1 cells [4] (Homo sapiens, THP-1), this compound gave an IC50 above 100 µM.

Regarding `CCC(CC(=O)c1cc2cc(OC)c(OC)cc2[se]1)C(=O)O` (stereo not drawn) [I-14, 4-(5,6-dimethoxybenzo[b]selenophene-2-yl)-2-ethyl-4-oxo-butanoic acid], the “Agitation activity in luciferase assay, THP1-dual (agitation fold)” value in the data set on THP1-dual cells is given as “*** (*** represented an agitation fold of 20 or more)”. In addition, the “Agitation activity in luciferase assay, RAW-Lucia (agitation fold)” value with RAW-Lucia cells is reported as “*** (*** represented an agitation fold of 20 or more)”. For the same compound, the Emax at 20 µM in the data set on THP1 cells [1] was determined as 260%. The solubility came to 700 µg/mL (≈ 1900 µM) in “Water solubility” (setting [5]) and 28 µg/mL (≈ 75.8 µM) in the data set “Water solubility” (setting [6]). Moreover, in “LogP” (read-out: LogP), the logP was 2.7. In addition, the “RLM @ 2 h (%)” value in data set [2] (setting [7]) is given as above 90%. In addition, the “hPlasma @ 24 h (%)” value in data set [3] (setting [8]) is reported as above 90%. The IC50 with THP1 cells [4] (Homo sapiens, THP-1) is above 100 µM.

As to `COc1cc2cc(C(=O)CCC(=O)O)sc2cc1OC` [MSA2, reference compound], in “Water solubility”, the “water solubility, PBS” value came out at 400 µg/mL (≈ 1360 µM) and the “water solubility, Water” value is 6 µg/mL (≈ 20.4 µM). The logP in “LogP” came to 1.5. In data set [2] (rat, microsomes, 2 h), the “RLM @ 2 h (%)” value is recorded as above 90%. In addition, the “hPlasma @ 24 h (%)” value in data set [3] is recorded as above 90%. The compound further yielded an IC50 in the data set on THP1 cells [4] above 100 µM.

Values taken from patent US12606538B2, “Benzo[b]selenophene sting regulator, preparation method and use thereof” (CHINA PHARMACEUTICAL UNIVERSITY, priority 2021, dated 2026).
